Key:
BV-2 microglial cells = test: LPS-induced inflammatory responses in BV-2 microglia; type: cell-based, mouse
hPPARα = target: T1, hPPARα (Homo sapiens, UniProt Q07869); test: In vitro co-transfection (PPRE-luciferase) assay in CV-1 cells, hPPARα; type: cell-based; settings: 24 h, read-out: Potency (EC50) hPPARα
T1 sequence (Q07869 1-468): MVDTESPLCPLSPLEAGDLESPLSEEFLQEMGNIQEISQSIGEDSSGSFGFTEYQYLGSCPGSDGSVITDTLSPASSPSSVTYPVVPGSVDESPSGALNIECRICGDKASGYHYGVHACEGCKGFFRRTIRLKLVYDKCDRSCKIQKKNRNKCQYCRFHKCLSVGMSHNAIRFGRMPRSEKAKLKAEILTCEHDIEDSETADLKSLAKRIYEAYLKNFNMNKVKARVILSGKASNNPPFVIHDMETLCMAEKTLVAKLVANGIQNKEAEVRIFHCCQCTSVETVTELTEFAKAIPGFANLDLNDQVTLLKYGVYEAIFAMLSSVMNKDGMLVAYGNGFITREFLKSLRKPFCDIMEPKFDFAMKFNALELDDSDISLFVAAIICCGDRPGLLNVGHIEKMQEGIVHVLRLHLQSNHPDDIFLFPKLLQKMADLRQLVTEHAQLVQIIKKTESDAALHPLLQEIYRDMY

primary mouse astrocytes = test: LPS/IFNγ-induced inflammatory responses in primary mouse astrocytes; type: cell-based
CYP2C19 = target: T2, CYP2C19 (Homo sapiens, UniProt P33261); test: CYP inhibition assay, human liver microsomes; type: in vitro ADME
T2 construct: performed using 0.25 mg/mL human liver microsomes; from tissue; host or cells: human liver microsomes
Method: (§1) All incubations were performed in duplicate, and the mean values were used for analysis. Cocktail incubations were carried out using […] probe substrates of CYP1A2, CYP2C9, CYP2C19, CYP2D6, and CYP3A4: phenacetin, tolbutamide, mephenytoin, dextromethorphan and midazolam respectively, followed by tandem mass spectrometry. Briefly, an incubation reaction was performed using 0.25 mg/mL human liver microsomes in a final incubation volume of 100 μL. The incubation medium contained 100 mM phosphate buffer (pH 7.4) and probe substrates. The incubation mixture containing various inhibitors (10 μM) was pre-incubated for 5 min. After pre-incubation, an NADPH-regenerating system was added. After incubation at 37 °C for 15 min, the reaction was stopped by placing the incubation tubes on ice and adding 40 μL of ice-cold acetonitrile. The incubation mixtures were centrifuged at 10,000 g and 4 °C for 5 min. Aliquots of the supernatant were injected onto an LC-MS/MS system. The CYP-mediated activities in the presence of inhibitors were expressed as a percentage of the corresponding control value.
(§2) Ta b l e S2 . CYP inhibition, microsomal stability, and hERG in hibition of 5a .
(§3) CYP inhibitiona Microsomal stabilityb
(§4) ( % of c ont rol ac ti vit y) (% of remaining compound) hERG inhibitionc (IC50, μ M) […]
(§5) aCytochrome P450 (CYP450) enzyme activity was measured by incubating CYP450 enzyme isotype-specific substrates and liver microsomes in the presence of the test compound (10 μM) for 15 min. Data are expressed as percent of CYP enzyme activity relative to that of t he v ehicle-treated control. […]
(§6) a- cThe results of these three assays were obtained through the in vitro ADME/Tox study service of KMEDIhub, a contract research organization (CRO). The reported measurements are the mean of […]

CYP3A4 = target: T3, CYP3A4 (Homo sapiens, UniProt P08684); test: CYP inhibition assay, human liver microsomes; type: in vitro ADME
T3 construct: performed using 0.25 mg/mL human liver microsomes; from tissue; host or cells: human liver microsomes
Method: as §1, §2, §3, §4, §5, §6

CYP2C9 = target: T4, CYP2C9 (Homo sapiens, UniProt P11712); test: CYP inhibition assay, human liver microsomes; type: in vitro ADME
T4 construct: performed using 0.25 mg/mL human liver microsomes; from tissue; host or cells: human liver microsomes
Method: as §1, §2, §3, §4, §5, §6

CYP1A2 = target: T5, CYP1A2 (Homo sapiens, UniProt P05177); test: CYP inhibition assay, human liver microsomes; type: in vitro ADME
T5 construct: performed using 0.25 mg/mL human liver microsomes; from tissue; host or cells: human liver microsomes
T5 sequence (P05177 1-516): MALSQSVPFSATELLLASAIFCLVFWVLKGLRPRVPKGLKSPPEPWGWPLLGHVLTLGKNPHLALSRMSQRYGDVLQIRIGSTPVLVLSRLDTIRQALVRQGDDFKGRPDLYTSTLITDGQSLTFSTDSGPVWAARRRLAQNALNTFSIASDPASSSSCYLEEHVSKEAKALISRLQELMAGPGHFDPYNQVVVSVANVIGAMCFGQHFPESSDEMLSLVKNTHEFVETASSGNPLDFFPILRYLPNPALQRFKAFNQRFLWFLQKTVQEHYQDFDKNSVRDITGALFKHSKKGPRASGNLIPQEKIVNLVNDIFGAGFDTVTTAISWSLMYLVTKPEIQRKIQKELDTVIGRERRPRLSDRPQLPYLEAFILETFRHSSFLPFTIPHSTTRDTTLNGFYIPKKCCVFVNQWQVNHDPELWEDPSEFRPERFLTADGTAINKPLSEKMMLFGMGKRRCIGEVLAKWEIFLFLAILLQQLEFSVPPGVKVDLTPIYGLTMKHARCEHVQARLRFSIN
Method: as §1, §2, §3, §4, §5, §6

CYP2D6 = target: T6, CYP2D6 (Homo sapiens, UniProt P10635); test: CYP inhibition assay, human liver microsomes; type: in vitro ADME
T6 construct: performed using 0.25 mg/mL human liver microsomes; from tissue; host or cells: human liver microsomes
Method: as §1, §2, §3, §4, §5, §6

[1] = 10 μM, 15 min, human liver microsomes
[2] = stated for the five CYP subtypes, tested at 10 µM

T4 sequence (P11712 whole entry): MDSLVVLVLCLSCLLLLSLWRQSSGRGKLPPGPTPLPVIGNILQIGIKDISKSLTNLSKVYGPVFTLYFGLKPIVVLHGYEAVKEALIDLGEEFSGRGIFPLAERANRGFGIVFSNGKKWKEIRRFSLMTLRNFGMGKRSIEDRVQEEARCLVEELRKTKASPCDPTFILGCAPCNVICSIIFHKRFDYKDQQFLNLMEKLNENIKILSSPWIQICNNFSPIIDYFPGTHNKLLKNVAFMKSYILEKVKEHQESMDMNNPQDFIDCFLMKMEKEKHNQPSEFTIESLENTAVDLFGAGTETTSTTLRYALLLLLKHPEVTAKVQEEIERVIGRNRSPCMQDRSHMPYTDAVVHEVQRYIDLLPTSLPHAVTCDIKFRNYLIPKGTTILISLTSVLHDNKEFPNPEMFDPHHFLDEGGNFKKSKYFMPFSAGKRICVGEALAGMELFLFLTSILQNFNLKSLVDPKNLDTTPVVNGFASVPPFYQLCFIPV
T3 sequence (P08684 whole entry): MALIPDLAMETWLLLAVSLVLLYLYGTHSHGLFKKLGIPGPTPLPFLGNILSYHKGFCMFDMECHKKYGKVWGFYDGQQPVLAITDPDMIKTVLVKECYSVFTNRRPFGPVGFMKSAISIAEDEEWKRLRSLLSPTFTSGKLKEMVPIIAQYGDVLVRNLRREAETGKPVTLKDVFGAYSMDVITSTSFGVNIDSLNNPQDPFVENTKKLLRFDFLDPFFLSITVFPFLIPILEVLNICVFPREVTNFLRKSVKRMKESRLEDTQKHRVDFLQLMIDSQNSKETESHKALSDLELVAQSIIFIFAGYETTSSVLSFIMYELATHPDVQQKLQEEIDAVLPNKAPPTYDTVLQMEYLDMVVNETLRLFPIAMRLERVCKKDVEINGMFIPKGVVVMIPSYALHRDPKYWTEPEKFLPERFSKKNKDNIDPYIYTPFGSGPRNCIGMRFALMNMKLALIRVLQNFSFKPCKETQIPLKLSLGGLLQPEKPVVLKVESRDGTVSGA
T2 sequence (P33261 whole entry): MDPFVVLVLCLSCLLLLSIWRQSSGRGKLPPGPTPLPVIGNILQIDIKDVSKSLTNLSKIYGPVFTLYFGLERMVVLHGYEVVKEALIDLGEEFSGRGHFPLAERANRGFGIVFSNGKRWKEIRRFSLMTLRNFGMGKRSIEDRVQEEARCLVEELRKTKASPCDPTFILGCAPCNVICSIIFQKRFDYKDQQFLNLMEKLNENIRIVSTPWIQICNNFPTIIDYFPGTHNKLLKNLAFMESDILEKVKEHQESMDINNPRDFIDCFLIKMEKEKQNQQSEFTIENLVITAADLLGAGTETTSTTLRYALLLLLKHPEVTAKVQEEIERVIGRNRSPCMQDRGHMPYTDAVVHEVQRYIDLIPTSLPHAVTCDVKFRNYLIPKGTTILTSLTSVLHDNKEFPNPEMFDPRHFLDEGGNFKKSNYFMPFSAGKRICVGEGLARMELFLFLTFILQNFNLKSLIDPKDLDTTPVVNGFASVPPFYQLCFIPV
T6 sequence (P10635 whole entry): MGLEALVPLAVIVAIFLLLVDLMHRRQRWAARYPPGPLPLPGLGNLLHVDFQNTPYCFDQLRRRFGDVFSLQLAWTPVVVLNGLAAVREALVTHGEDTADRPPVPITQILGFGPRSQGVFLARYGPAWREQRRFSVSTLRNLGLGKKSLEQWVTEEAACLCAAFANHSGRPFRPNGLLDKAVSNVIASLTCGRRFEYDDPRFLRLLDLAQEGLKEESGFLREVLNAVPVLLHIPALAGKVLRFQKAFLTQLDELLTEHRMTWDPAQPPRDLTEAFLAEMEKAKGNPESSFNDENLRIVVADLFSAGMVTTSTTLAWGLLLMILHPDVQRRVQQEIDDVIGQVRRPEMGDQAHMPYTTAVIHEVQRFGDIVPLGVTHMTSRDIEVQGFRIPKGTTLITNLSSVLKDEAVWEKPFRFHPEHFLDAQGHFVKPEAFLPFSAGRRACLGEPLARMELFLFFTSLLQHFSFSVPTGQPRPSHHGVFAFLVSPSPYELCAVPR

SMILES: Cc1cc(SCc2[se]c(-c3ccc(C(F)(F)F)cc3)nc2C)ccc1OCC(=O)O [Compound 5a, {2-Methyl-4-[4-methyl-2-(4-trifluoromethyl-phenyl)-selenazol-5-yl-methylsulfanyl]-phenoxy}-acetic acid]
- LPS-induced mRNA and protein levels of iNOS, TNF-α and IL-6 (BV-2 microglial cells; BV-2, LPS 0.2 μg/mL): reduced the LPS-induced increases
- LPS-induced NO production (nitrite) (BV-2 microglial cells; pretreatment 3 h, LPS 0.2 μg/mL 24 h): suppressed
- LPS-induced phosphorylation of NF-κB p65 (BV-2 microglial cells; pretreatment 6 h, LPS 1 h): prevented the increase
- EC50 (hPPARα): > 10 µM
- LPS/IFNγ-induced NO release (primary mouse astrocytes; primary astrocytes): significantly reduced NO release
- LPS/IFNγ-induced production of TNF-α, IL-1β and IL-6 (primary mouse astrocytes; primary astrocytes): suppressed the production of pro-inflammatory cytokines
- Anti-inflammatory effects on astrocytes compared with GW501516 (primary mouse astrocytes; same concentration): superior to those of GW501516
- CYP inhibition 2C19 (% of control activity) (CYP2C19; [1]): 88.6 % of control activity
- IC50 (CYP2C19; [2]): > 10 µM
- CYP inhibition 3A4 (% of control activity) (CYP3A4; [1]): 94.9 % of control activity
- IC50 (CYP3A4; [2]): > 10 µM
- CYP inhibition 2C9 (% of control activity) (CYP2C9; [1]): 63.6 % of control activity
- IC50 (CYP2C9; [2]): > 10 µM
- CYP inhibition 1A2 (% of control activity) (CYP1A2; [1]): 78.1 % of control activity
- IC50 (CYP1A2; [2]): > 10 µM
- CYP inhibition 2D6 (% of control activity) (CYP2D6; [1]): 92.1 % of control activity
- IC50 (CYP2D6; [2]): > 10 µM

— PMC11488110 (Theranostics, 2024)
